The target of test [1] is T1, Cyclin-dependent kinase 12 (Homo sapiens, UniProt Q9NYV4). Put plainly: Selectivity interaction (Radioactive kinase activity assay) EUB0001635a CDK12.
Test [2] has as its target T1, Cyclin-dependent kinase 12. The test can be described thus: Selectivity interaction (Western blot assay (pull-down blockage of CDK7-cyclin H using lysates from HAP1 cells)) EUB0001635a CDK12. The class given is cell-based.
The target of test [3] is T1, Cyclin-dependent kinase 12. Put plainly: Selectivity interaction (Western blot assay (pull-down blockage of CDK7-cyclin H using lysates from Jurkat cells)) EUB0001635a CDK12. The class given is subcellular, lysate. A general note: Immunoblotting shows a protein as a band on a membrane.
Test [4] concerns the target T2, Cyclin-dependent kinase 13 (Homo sapiens, UniProt Q14004). Put plainly: Selectivity interaction (Radioactive kinase activity assay) EUB0001635a CDK13.
For test [5], the target named is T2, Cyclin-dependent kinase 13. Put plainly: Selectivity interaction (Western blot assay (pull-down blockage of CDK7-cyclin H using lysates from HAP1 cells)) EUB0001635a CDK13. Format: cell-based.
Test [6] concerns the target T2, Cyclin-dependent kinase 13. Put plainly: Selectivity interaction (Western blot assay (pull-down blockage of CDK7-cyclin H using lysates from Jurkat cells)) EUB0001635a CDK13. Format: subcellular, lysate.
Test [7] concerns the target T3, Cyclin-dependent kinase 7 (Homo sapiens, UniProt P50613). The test can be described thus: Selectivity interaction (Electrophoretic mobility shift assay) EUB0001635a CDK7. (In EMSA bound probe runs differently from free probe, usually more slowly.)
For test [8], the target named is Cyclin-dependent kinase 7 (Homo sapiens, UniProt P50613, C312S). The test can be described thus: Selectivity interaction (Radioactive kinase assays (from cellular C312S flag-tagged CDK7 immunoprecipitated in HeLa cells)) EUB0001635a CDK7. Format: cell-based.
The target of test [9] is T3, Cyclin-dependent kinase 7. The test can be described thus: Selectivity interaction (Western blot assay (pull-down blockage of CDK7-cyclin H using lysates from HAP1 cells)) EUB0001635a CDK7. The class given is cell-based.
In test [10] the target is T3, Cyclin-dependent kinase 7. Put plainly: Selectivity interaction (Western blot assay (pull-down blockage of CDK7-cyclin H using lysates from Jurkat cells)) EUB0001635a CDK7. The class given is subcellular, lysate.
The target in test [11] is Adenosine receptor A1 (Homo sapiens) (UniProt P30542). The test can be described thus: Selectivity interaction (CEREP panel (binding assay, receptors and ion channels)) EUB0001623a ADORA1. As to conditions: at 1 µM.
Test [12] has as its target Cyclin-dependent kinase 1/cyclin B (Homo sapiens) (UniProt P06493+P14635+Q8WWL7+O95067). The test can be described thus: Selectivity interaction (Kinase panel (literature)) EUB0001623a CDK1. The class given is protein-complex assay. Conditions: at 1 µM.
Test [13] has as its target Cyclin-dependent kinase 2/cyclin A (Homo sapiens) (UniProt P24941+P20248+P78396). The test can be described thus: Selectivity interaction (Kinase panel (literature)) EUB0001623a CDK2. Format: protein-complex assay. As to conditions: at 1 µM.
Test [14] has as its target Cyclin-dependent kinase 5 (Homo sapiens, UniProt Q00535). Put plainly: (§1) Selectivity interaction (Kinase panel (literature)) EUB0001623a CDK5. As to conditions: at 1 µM.
Test [15] has as its target CDK5/Cyclin D3 (Homo sapiens) (UniProt Q00535+P30281). Described as §1. Format: protein-complex assay. Conditions: at 1 µM.
Test [16] addresses CDK6/cyclin D3 (Homo sapiens) (UniProt P30281+Q00534). Put plainly: Selectivity interaction (Kinase panel (literature)) EUB0001623a CDK6. The class given is protein-complex assay. Conditions: at 1 µM.
Test [17] concerns the target CDK7/Cyclin H/MNAT1 (Homo sapiens) (UniProt P51946+P50613+P51948). Put plainly: Selectivity interaction (Kinase panel (literature)) EUB0001623a CDK7. As to conditions: at 1 µM. Format: protein-complex assay.
Test [18] addresses Cyclin-dependent kinase 8 (Homo sapiens, UniProt P49336). Put plainly: Selectivity interaction (Reporter displacement assay) EUB0001623a CDK8.
Test [19] concerns the target CDK9/cyclin T1 (Homo sapiens) (UniProt O60563+P50750). The test can be described thus: Selectivity interaction (Kinase panel (literature)) EUB0001623a CDK9. The class given is protein-complex assay. As to conditions: at 1 µM.
The target of test [20] is Cyclin-dependent kinase 9 (Homo sapiens, UniProt P50750). The test can be described thus: Selectivity interaction (Reporter displacement assay) EUB0001623a CDK9.
In test [21] the target is T4, D(2) dopamine receptor (Homo sapiens, UniProt P14416). Put plainly: (§2) Selectivity interaction (CEREP panel (binding assay, receptors and ion channels)) EUB0001623a DRD2. As to conditions: at 1 µM.
In test [22] the target is T4, D(2) dopamine receptor. The test is described as §2.
Test [23] addresses T5, Receptor-type tyrosine-protein kinase FLT3 (Homo sapiens, UniProt P36888).
T5 sequence (P36888 whole entry): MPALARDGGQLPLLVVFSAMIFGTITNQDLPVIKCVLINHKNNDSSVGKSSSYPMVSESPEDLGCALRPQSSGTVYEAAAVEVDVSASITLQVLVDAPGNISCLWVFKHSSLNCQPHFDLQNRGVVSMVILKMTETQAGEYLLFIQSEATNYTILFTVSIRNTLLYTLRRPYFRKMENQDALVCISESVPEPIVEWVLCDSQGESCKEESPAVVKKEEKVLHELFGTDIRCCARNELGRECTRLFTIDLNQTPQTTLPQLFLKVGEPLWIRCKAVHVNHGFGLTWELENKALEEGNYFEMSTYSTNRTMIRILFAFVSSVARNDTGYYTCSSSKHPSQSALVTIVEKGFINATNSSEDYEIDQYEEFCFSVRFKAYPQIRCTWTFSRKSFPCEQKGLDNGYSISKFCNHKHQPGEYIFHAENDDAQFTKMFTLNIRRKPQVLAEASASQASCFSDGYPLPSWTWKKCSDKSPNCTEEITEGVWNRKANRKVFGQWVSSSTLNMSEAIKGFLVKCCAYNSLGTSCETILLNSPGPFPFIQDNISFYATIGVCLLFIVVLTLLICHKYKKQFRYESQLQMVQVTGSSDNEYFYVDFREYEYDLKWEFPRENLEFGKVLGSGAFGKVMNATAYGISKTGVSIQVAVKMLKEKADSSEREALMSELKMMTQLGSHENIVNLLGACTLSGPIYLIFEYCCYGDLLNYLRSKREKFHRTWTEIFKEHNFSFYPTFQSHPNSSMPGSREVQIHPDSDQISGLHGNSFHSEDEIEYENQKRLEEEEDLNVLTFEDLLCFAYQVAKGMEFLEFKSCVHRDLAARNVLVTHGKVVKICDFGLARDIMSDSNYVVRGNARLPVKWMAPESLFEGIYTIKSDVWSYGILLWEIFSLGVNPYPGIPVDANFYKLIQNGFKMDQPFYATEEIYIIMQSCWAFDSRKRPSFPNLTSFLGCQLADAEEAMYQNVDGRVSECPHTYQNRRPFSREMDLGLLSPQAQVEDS
Put plainly: Selectivity interaction (Kinase panel (literature)) EUB0001623a FLT3.

The target of test [24] is NT-3 growth factor receptor (Homo sapiens, UniProt Q16288). Put plainly: Selectivity interaction (Kinase panel (literature)) EUB0001623a NTRK3.
Test [25] concerns the target Ribosomal protein S6 kinase beta-1 (Homo sapiens, UniProt P23443). The test can be described thus: Selectivity interaction (Kinase panel (literature)) EUB0001623a RPS6KB1. Conditions: at 1 µM.
In test [26] the target is T6, Serine/threonine-protein kinase Sgk1 (Homo sapiens) (UniProt O00141).
T6 sequence (whole entry): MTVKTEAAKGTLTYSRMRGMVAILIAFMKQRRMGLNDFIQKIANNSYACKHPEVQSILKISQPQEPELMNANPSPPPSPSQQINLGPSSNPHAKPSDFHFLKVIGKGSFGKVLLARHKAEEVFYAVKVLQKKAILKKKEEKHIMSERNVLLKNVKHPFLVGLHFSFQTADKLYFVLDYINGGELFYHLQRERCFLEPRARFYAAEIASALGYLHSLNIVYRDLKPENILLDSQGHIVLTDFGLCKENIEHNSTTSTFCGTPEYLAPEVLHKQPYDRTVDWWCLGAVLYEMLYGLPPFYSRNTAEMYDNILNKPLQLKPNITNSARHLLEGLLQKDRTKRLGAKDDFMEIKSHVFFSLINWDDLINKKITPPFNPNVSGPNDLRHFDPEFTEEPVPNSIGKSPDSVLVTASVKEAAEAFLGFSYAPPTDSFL
Put plainly: Selectivity interaction (Kinase panel (literature)) EUB0001623a SGK1. As to conditions: at 1 µM.

Test [27] addresses Cyclin-dependent kinase 2/cyclin E (Homo sapiens) (UniProt P24864+P24941+O96020). Conditions: at 1 µM.
For test [28], the target named is Cyclin-dependent kinase 3 (Homo sapiens) (UniProt Q00526). As to conditions: at 1 µM.

Bounds are passed on as bounds.

T3 sequence (P50613 whole entry): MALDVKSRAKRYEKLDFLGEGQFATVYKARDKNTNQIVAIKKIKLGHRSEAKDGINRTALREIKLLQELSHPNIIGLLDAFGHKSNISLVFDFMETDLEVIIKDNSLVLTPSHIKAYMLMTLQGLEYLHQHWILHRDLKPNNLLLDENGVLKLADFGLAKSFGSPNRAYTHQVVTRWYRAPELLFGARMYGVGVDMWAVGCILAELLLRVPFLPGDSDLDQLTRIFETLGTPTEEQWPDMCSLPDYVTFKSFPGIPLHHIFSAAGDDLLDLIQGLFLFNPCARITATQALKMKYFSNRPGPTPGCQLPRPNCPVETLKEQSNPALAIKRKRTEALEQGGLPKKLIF
T1 sequence (Q9NYV4 whole entry): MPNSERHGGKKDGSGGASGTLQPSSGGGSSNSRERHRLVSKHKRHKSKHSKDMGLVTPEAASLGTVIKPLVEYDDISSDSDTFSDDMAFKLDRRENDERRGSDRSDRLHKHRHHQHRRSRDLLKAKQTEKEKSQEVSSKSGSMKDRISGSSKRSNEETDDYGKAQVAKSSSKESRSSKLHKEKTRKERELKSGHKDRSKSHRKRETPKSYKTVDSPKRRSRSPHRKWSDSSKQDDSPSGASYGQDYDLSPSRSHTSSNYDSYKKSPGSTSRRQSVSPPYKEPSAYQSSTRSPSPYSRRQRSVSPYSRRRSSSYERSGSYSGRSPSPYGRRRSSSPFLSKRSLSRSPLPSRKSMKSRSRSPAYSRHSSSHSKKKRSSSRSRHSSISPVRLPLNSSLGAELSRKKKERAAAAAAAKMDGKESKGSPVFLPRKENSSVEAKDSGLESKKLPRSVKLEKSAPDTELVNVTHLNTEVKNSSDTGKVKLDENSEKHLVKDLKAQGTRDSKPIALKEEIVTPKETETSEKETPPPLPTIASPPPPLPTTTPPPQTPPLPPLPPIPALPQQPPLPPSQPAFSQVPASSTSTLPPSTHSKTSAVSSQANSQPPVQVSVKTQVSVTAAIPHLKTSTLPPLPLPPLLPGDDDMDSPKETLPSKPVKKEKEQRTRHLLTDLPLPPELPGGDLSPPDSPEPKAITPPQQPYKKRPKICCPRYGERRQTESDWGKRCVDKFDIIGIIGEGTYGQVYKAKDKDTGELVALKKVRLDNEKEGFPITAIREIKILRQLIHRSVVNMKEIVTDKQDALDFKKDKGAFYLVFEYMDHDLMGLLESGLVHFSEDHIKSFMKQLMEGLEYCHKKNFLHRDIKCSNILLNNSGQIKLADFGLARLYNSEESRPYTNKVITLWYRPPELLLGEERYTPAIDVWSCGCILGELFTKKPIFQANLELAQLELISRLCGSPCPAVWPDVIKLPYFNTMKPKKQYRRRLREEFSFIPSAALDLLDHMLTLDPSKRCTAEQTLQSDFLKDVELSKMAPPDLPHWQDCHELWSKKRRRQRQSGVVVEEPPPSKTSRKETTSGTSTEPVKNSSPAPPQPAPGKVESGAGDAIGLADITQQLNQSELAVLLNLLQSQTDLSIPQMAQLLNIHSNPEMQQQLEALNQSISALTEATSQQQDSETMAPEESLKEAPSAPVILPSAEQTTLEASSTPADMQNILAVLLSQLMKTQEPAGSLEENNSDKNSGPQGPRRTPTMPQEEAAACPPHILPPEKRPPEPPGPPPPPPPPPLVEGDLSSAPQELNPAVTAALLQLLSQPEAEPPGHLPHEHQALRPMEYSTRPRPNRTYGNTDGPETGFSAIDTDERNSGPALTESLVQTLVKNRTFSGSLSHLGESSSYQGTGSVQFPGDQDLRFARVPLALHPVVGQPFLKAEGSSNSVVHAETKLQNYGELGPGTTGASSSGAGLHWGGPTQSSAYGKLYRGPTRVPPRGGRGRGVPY
T2 sequence (Q14004 whole entry): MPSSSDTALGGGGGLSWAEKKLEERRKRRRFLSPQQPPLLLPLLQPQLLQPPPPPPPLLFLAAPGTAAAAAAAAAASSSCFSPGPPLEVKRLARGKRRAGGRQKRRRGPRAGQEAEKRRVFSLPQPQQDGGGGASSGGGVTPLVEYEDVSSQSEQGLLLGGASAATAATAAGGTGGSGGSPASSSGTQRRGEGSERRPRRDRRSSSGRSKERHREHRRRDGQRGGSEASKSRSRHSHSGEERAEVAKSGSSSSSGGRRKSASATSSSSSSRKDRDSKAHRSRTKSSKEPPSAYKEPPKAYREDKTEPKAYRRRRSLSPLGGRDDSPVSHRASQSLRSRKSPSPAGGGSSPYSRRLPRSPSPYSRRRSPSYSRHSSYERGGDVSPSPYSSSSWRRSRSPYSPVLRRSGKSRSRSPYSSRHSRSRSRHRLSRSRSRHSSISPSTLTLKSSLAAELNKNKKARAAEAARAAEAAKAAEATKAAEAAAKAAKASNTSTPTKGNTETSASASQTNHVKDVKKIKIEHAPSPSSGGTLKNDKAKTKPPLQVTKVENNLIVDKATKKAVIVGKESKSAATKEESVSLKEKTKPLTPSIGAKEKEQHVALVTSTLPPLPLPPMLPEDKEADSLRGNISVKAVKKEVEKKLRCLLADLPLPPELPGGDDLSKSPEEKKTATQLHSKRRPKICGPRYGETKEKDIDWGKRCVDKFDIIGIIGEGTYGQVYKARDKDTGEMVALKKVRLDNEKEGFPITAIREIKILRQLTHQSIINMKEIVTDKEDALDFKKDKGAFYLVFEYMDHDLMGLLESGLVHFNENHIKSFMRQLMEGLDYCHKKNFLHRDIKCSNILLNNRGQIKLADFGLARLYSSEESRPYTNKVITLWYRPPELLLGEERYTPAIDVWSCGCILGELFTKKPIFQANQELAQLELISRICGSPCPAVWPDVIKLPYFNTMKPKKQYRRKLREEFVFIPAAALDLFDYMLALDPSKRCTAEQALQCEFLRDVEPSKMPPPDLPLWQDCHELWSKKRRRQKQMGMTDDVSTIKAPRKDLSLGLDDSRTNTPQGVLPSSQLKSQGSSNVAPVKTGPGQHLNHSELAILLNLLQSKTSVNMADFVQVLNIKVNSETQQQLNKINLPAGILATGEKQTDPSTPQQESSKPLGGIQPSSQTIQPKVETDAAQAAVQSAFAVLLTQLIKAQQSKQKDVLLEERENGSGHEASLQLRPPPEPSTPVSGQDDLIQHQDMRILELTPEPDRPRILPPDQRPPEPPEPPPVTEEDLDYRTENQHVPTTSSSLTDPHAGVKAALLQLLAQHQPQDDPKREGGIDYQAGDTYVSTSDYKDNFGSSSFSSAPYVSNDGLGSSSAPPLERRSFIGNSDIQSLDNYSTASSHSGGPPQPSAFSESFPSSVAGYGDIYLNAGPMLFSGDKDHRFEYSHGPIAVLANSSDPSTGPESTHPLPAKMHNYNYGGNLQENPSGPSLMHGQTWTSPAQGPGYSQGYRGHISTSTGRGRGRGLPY
T4 sequence (P14416 whole entry): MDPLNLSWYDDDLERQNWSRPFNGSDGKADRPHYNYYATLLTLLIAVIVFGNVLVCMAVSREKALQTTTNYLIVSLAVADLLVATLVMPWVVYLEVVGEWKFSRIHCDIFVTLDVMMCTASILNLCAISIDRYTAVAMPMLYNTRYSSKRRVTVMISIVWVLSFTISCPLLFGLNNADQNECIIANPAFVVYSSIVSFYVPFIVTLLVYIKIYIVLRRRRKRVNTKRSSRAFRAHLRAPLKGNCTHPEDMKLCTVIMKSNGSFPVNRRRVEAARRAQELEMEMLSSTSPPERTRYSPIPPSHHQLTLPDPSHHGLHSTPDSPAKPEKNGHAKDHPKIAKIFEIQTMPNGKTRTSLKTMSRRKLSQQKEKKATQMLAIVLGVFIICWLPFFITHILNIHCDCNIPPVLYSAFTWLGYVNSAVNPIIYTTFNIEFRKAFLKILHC
Chain of Cyclin-dependent kinase 3 (Homo sapiens) (Q00526 whole entry, looked up): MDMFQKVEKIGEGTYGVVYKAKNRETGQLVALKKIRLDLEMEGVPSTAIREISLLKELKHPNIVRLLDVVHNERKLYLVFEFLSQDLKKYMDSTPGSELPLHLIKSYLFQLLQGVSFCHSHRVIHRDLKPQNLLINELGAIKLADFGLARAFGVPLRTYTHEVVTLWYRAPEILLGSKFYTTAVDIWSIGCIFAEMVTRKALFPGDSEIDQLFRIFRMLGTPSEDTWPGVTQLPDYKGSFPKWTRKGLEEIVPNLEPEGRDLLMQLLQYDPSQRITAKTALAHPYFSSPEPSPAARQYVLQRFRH
Chain of NT-3 growth factor receptor (Q16288 whole entry): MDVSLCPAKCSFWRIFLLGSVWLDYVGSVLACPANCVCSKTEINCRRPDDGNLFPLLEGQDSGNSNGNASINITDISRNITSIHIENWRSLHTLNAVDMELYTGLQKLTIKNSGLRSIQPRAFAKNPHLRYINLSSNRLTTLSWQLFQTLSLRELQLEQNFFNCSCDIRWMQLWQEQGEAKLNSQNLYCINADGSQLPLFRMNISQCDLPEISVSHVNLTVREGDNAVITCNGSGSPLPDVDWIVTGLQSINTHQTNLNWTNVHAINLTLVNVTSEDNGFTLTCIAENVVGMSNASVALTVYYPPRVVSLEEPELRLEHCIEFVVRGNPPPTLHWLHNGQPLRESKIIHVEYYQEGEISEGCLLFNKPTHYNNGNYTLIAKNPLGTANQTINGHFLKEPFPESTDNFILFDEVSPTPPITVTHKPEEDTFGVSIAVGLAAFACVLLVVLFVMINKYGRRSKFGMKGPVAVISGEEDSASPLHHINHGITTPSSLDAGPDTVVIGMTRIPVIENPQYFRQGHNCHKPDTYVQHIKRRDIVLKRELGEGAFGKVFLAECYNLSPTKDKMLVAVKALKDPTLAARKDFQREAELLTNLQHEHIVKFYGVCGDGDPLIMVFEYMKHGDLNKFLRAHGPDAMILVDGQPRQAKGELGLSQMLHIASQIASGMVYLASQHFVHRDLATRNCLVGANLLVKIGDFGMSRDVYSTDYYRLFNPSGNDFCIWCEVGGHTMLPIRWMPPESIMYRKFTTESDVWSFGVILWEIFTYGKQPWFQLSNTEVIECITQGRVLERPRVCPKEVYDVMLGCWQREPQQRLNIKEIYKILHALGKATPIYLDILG

A word on the IC50: it is the concentration at which inhibition is half-maximal. The Ki is a measure of affinity in units of concentration, obtained from inhibition or displacement. As for `C=CC(=O)Nc1ccc(C(=O)Nc2n[nH]c3c2CN(C(=O)N[C@H](CN(C)C)c2ccccc2)C3(C)C)cc1`, the IC50 in [1] is over 10 µM; in test [2], over 1000 nM; in test [3] it was over 1000 nM; in [4] it was over 10 µM; in test [5], over 1000 nM; in test [6], over 1000 nM. Moreover, the IC50 was over 10 µM in test [8], over 30 µM in [9] and over 30 µM in [10]. In addition, the Ki in [7] was 1.9 nM.

With `Cc1n[nH]c2ncc(C(=O)N3CCC[C@H]3c3ccc(Cl)cc3)cc12`, the % of inhibition was 48% in test [11]; 2% in test [12]; -7% in test [13]; -1% in test [14]; -1% in test [15]; 12% in [16]. Moreover, the % of inhibition in test [17] is 7%; in [19] it was 13%; in test [21], 54%; in [25], 47%; in test [26], 39%; in test [27], 18%. Moreover, the % of inhibition in [28] was found to be 2%. Further, the IC50 in [18] was 4 nM; in test [20], 4 nM; in [22], 8.5 µM; in test [23], over 30 µM; in [24], over 30 µM.

Source of the values: ChEMBL document CHEMBL5465560, “Selectivity Literature for EUbOPEN Chemogenomic Library” (2024).
